According to patent US20240408100A1, “TREATMENT METHODS FOR SUBJECTS HAVING CANCER WITH A DYSREGULATED MAPK AND/OR PI3K PATHWAY” (TAIHO PHARMACEUTICAL CO., LTD., priority 2021, published 2024):
Read-outs that look alike come from different tables or passages of the source.

Experiments:
[1] = system: LS180 human colorectal tumor xenografts; experiment: antitumor effect in mice with LS180 xenograft tumors; assay type: in vivo; settings: 80 mg/kg/day
Experimental: The oncogenic KRAS mutations are diverse, including not only G12C but also G12X and G13X in the mutation hotspot Glycine at […]. To determine whether Compound (1), which targets downstream of MAPK and PI3K signaling, is effective against G12D mutated cancers, an efficacy experiment of Compound (1) was conducted using subcutaneously transplanted LS180 tumor derived from colorectal cancers with KRAS G12D and PIK3CA and PTEN gene alterations.
Evaluation was conducted by comparing the efficacy of 80 mg/kg/day of Compound (1) with that of 1 mg/kg/day MEK inhibitor trametinib used as a reference group.

SW1573 = experiment: 3-day growth inhibition assay; assay type: cell-based; settings: Homo sapiens; SW1573 (NSCLC), KRAS p.G12C, PIK3CA p.K111E; read-out: Growth inhibition (IC50: nmol/L)
Experimental: (§1) The IC50 values for each compound in cell lines used in a series of animal experiments evaluating the antitumor effects of Compound (1) on KRAS mutant tumor xenografts were determined by a 3-day growth inhibition assay (Table 7).

LS180 = experiment: 3-day growth inhibition assay; assay type: cell-based; settings: Homo sapiens; LS180 (Colon), KRAS p.G12D, PIK3CA p.H1047R, PTEN p.I67K; read-out: Growth inhibition (IC50: nmol/L)
Experimental: as §1

AsPC-1 = experiment: 3-day growth inhibition assay; assay type: cell-based; settings: Homo sapiens, ASPC1; AsPC-1 (Pancreas), KRAS p.G12D; read-out: Growth inhibition (IC50: nmol/L)
Experimental: as §1

[2] = system: AsPC-1 human pancreatic tumor xenografts; settings: for T/C ratio (%): Day 22; for Tumor volume (mm^3) Day 22 Mean ± SE: qd Day 1-21, po
Experimental: All treatments were administered every day by oral gavage. The tumor volumes and body weights of animals were recorded.

NF1 mutant cell lines = experiment: growth inhibition assay, summary over the panel; assay type: cell-based; settings: Homo sapiens; NF1 mutant cell lines except for MDA-MB-231 cells; read-out: IC50 value
Description: (§2) In order to investigate the growth inhibitory effect of Compound (1) in NF1 mutant cancer cell lines, the IC50 values of growth inhibition assay were obtained and compared then in Table 2.
(§3) In this experiment, to compare the growth inhibitory effect of Compound (1) with those of MAPK and PI3K signaling inhibitors, the IC50 values of trametinib (as a MEK inhibitor), and Alpelisib (as a PI3K inhibitor) were obtained and compared.

[3] = system: T47D cells (control and NF1 knockdown); experiment: immunoblotting of target inhibition and apoptosis induction; assay type: cell-based
Experimental: (§4) To investigate the mechanism of action of Compound (1) in inhibiting the growth of NF1 knockdown breast cancer cells, Compound (1), trametinib, Alpelisib, and fulvestrant were exposed to NF1-knockdown MCF7 and T47D cells at indicated final concentration for 24 hours. NF1, pPRAS40 Thr246, pYB1 Ser102, pS6RP Ser235/236, ERα, and cleaved PARP were detected by immunoblotting.

PTEN-mutated HEC-6 cells = experiment: dose-dependent apoptosis induction; assay type: cell-based, human; settings: HEC-6, 48 hour, compared to control
[4] = system: cancer cell lines derived from various human cancer origins; experiment: cell growth inhibition assay, cell panel, CellTiter Glo 2.0; assay type: cell-based; settings: 72 hour, FIG. 4A
Experimental: Cell growth inhibition assay was conducted according to 72 hour-standard protocol by CellTiter Glo 2.0 Assay.

[5] = system: PTEN-mutated MFE-319 cells; experiment: dose-dependent apoptosis induction; assay type: cell-based, human; settings: MFE-319, 48 hour, compared to control
[6] = system: MCF7 cells (control and NF1 knockdown); experiment: immunoblotting of target inhibition and apoptosis induction; assay type: cell-based, human
Experimental: as §4

[7] = system: LU65 human lung tumor xenografts; experiment: antitumor effect in mice with LU65 xenograft tumors
Experimental: The tumor volumes and body weights of animals were recorded.

[8] = system: SW1573 human lung tumor xenografts; settings: for T/C ratio (%): Day 15; for Number of deaths / Tumor volume (mm^3) Day 15 Mean ± SE: qd Day 1-14, po
MeWo = experiment: growth inhibition assay, NF1 mutant cell line; assay type: cell-based; settings: Homo sapiens, melanoma, NF1 p.Q1336*
Description: as §2, §3

HCT116 = experiment: growth inhibition assay, NF1 mutant cell line; assay type: cell-based; settings: Homo sapiens, HCT-116; HCT116, colon, NF1 p.P678Rfs*10, p.P388T
Description: as §2, §3

H1838 = experiment: growth inhibition assay, NF1 mutant cell line; assay type: cell-based; settings: Homo sapiens, NCI-H1838; H1838, lung, NF1 p.N184Qfs*17
Description: as §2, §3

BT483 = experiment: growth inhibition assay, NF1 mutant cell line; assay type: cell-based; settings: Homo sapiens, BT-483; BT483, ER+ breast, NF1 p.R1204W
Description: as §2, §3

RKO = experiment: growth inhibition assay, NF1 mutant cell line; assay type: cell-based; settings: Homo sapiens, colon
Description: as §2, §3

HCC202 = experiment: growth inhibition assay, NF1 mutant cell line; assay type: cell-based; settings: HCC202, HER2+ breast, NF1 p.X465_splice
Description: as §2, §3

MDA-MB-231 = experiment: growth inhibition assay, NF1 mutant cell line; assay type: cell-based; settings: Homo sapiens; MDA-MB-231, TN breast, NF1 p.T467Hfs*3
Description: as §2, §3

MDA-MB-175VII = experiment: growth inhibition assay, NF1 mutant cell line; assay type: cell-based; settings: Homo sapiens, ER+ breast, NF1 p.1679Dfs*21
Description: as §2, §3

[9] = system: ER+/HER2− breast cancer cell lines; experiment: immunoblotting, combination with fulvestrant, presence and absence of estrogen and NF1; assay type: cell-based; settings: single agent; presence or absence of estrogen; NF1 wildtype and NF1 knockdown cells
Experimental: The actual standard of care for ER+/HER2− breast cancer uses the adjuvant therapies such as tamoxifen, letrozole, or fulvestrant. Patients with recurrent or refractory tumors are treated with additional use of CDK4/6 inhibitors or Alpelisib for PIK3CA-mutated cancers.

Question: For `CC(C)(C)NCCNc1ccc(-c2nnc(C(F)(F)F)o2)nc1C1CCN(c2ncnc3c2C(C)(C)C(=O)N3)CC1` [Compound (1), 4-(4-(3-((2-(tert-butylamino)ethyl)amino)-6-(5-(trifluoromethyl)-1,3,4-oxadiazol-2-yl)pyridin-2-yl)piperidin-1-yl)-5,5-dimethyl-5H-pyrolo[2,3-d]pyrimidin-6(7H)-one], which Number of deaths [1] is on record?
Answer: 0

Question: What about the “T/C ratio (%)” value ([1]; Day 15) of the same molecule?
Answer: 59%

Question: What about the “Tumor volume (mm^3) Day 15 Mean ± SE” value ([1]; qd Day 1-14, po) of the same molecule?
Answer: 867.8 ± 210.6 mm^3

Question: What about the IC50 (SW1573) of the same molecule?
Answer: 139 nmol/L

Question: And the IC50 (LS180)?
Answer: 316 nmol/L

Question: What about the IC50 (AsPC-1) of the same molecule?
Answer: 184 nmol/L

Question: What about the Number of deaths ([2]; 40 mg/kg/day) of the same molecule?
Answer: 0

Question: What about the “T/C ratio (%)” value ([2]; 40 mg/kg/day) of the same molecule?
Answer: 91%

Question: And the “Tumor volume (mm^3) Day 22 Mean ± SE” value ([2]; 40 mg/kg/day)?
Answer: 860.1 ± 112.1 mm^3

Question: What about the Number of deaths ([2]; 80 mg/kg/day) of the same molecule?
Answer: 0

Question: What about the “T/C ratio (%)” value ([2]; 80 mg/kg/day) of the same molecule?
Answer: 69%

Question: And the “Tumor volume (mm^3) Day 22 Mean ± SE” value ([2]; 80 mg/kg/day)?
Answer: 648.0 ± 51.7 mm^3

Question: And the “weight reduction or tolerability” value ([2]; mouse, in vivo)?
Answer: no significant changes in weight reduction or tolerability

Question: And the IC50 (NF1 mutant cell lines)?
Answer: < 1 µM

Question: What about the “apoptosis induction (cleaved PARP signal)” value ([3]; T47D NF1 knockdown cells versus control cells) of the same molecule?
Answer: remarkably higher level in NF1 knockdown cells than control cells

Question: And the “signals of pPRAS40, pYB1, and pS6RP (target inhibition)” value ([3]; T47D, control and NF1 knockdown, 24 hours, immunoblot)?
Answer: decreased the signals of pPRAS40, pYB1, and pS6RP in a concentration-dependent manner

Question: And the “levels of cleaved caspase-3 and cleaved PARP” value (PTEN-mutated HEC-6 cells)?
Answer: increased cleaved caspase-3 and cleaved PARP in a concentration dependent manner

Question: And the “growth inhibition in cancer cell panel” value [4]?
Answer: potent growth inhibition

Question: What about the “levels of cleaved caspase-3 and cleaved PARP” value [5] of the same molecule?
Answer: increased cleaved caspase-3 and cleaved PARP in a concentration dependent manner

Question: What about the “signals of pPRAS40, pYB1, and pS6RP (target inhibition)” value ([6]; MCF7, control and NF1 knockdown, 24 hours, immunoblot) of the same molecule?
Answer: decreased the signals of pPRAS40, pYB1, and pS6RP in a concentration-dependent manner

Question: What about the “apoptosis induction (cleaved PARP signal)” value ([6]; MCF7 NF1 knockdown cells versus control cells) of the same molecule?
Answer: did not exhibit the attenuation of apoptosis induction

Question: And the “apoptosis induction (cleaved PARP signal)” value ([6]; MCF7 control cells (non-targeting siRNA), single agent)?
Answer: induced apoptosis

Question: What about the Number of deaths ([7]; 80 mg/kg/day) of the same molecule?
Answer: 0

Question: What about the “T/C ratio (%)” value ([7]; 80 mg/kg/day, Day 13) of the same molecule?
Answer: 75%

Question: And the “Tumor volume (mm^3) Day 13 Mean ± SE” value ([7]; 80 mg/kg/day, qd, po)?
Answer: 1724.3 ± 91.1 mm^3

Question: What about the “tolerability (body weight changes)” value ([7]; throughout the study period) of the same molecule?
Answer: well tolerated

Question: And the “T/C ratio (%)” value ([8]; 30 mg/kg/day)?
Answer: 55%

Question: And the Number of deaths ([8]; 30 mg/kg/day)?
Answer: 0

Question: What about the “Tumor volume (mm^3) Day 15 Mean ± SE” value ([8]; 30 mg/kg/day) of the same molecule?
Answer: 438.6 ± 81.1 mm^3

Question: What about the “T/C ratio (%)” value ([8]; 60 mg/kg/day) of the same molecule?
Answer: 38%

Question: And the Number of deaths ([8]; 60 mg/kg/day)?
Answer: 0

Question: What about the “Tumor volume (mm^3) Day 15 Mean ± SE” value ([8]; 60 mg/kg/day) of the same molecule?
Answer: 305.6 ± 33.0 mm^3

Question: And the IC50 (MeWo)?
Answer: 0.844 µM

Question: And the IC50 (HCT116)?
Answer: 0.355 µM

Question: What about the IC50 (H1838) of the same molecule?
Answer: 0.344 µM

Question: And the IC50 (BT483)?
Answer: 0.128 µM

Question: And the IC50 (RKO)?
Answer: 0.118 µM

Question: What about the IC50 (HCC202) of the same molecule?
Answer: 0.157 µM

Question: And the IC50 (MDA-MB-231)?
Answer: 2.81 µM

Question: What about the IC50 (MDA-MB-175VII) of the same molecule?
Answer: 0.07 µM

Question: What about the apoptosis induction [9] of the same molecule?
Answer: observed
